# Results reported in PubChem BioAssay AID1996.
# Conditions: buffer; pH 7.4; 200.0 µM
row,SMILES,solubility kinetic [µg/mL]
1,O=C(COC(=O)COc1ccccc1)Nc1ccc(Br)cc1F,12.3
2,CC1CCCC(NC(=O)COC(=O)/C=C/c2ccc([N+](=O)[O-])cc2)C1C (centres undefined),4.8
3,Cc1cc(C)nc(SCC(=O)c2ccc(C)c(C)c2)n1,19.3
4,Br.Cc1ccc(C(=O)Cn2c(=N)n(N)c3ccccc32)cc1,> 54.2
5,CC(C)c1ccc(NC(=S)NCc2ccc3c(c2)OCO3)cc1,4.9
6,O=C(NC1CCCc2ccccc21)c1cc(F)cc(F)c1 (centres undefined),2.6
7,CC(=O)Nc1ccc(NC(=O)[C@H](C)NC(=O)c2ccco2)cc1,> 47.3
8,CCOCCOc1cccc(C(=O)NC(c2ccccc2)c2ccccc2)c1,< 0.8
9,COC(=O)c1c(C)nc(C)c(C(=O)OC)c1-c1cccs1,> 45.8
10,O=c1[nH]c(=S)[nH]cc1S(=O)(=O)c1cccc(Cl)c1,> 45.4
11,O=C(COC(=O)c1cccs1)Nc1ccccc1C(F)(F)F,2.5
12,O=C(NCCCn1ccnc1)c1cccc(Cl)c1,> 39.6
13,O=C(CN1CCN(c2ccc(F)cc2)CC1)Nc1ccccc1,> 47
14,N#C/C(=C/c1cc[nH]c1)C(N)=S,> 26.6
15,c1ccc(CSc2nc3ccccc3[nH]2)cc1,2.1
16,Cc1cccc(CC2CC(=O)N(c3ccc([N+](=O)[O-])cc3)C2=O)c1 (centres undefined),21
17,CSc1nccc(NC(=O)c2ccc(C(C)(C)C)cc2)n1,4.2
18,CN(c1ccccc1)S(=O)(=O)c1cccc(C(=O)OCC(=O)NCc2ccccc2)c1,11.1
19,Cc1ccc(NC(=S)NCc2ccc(Cl)cc2)c(C)c1,2.3
20,CC1(CCl)CN1S(=O)(=O)c1ccccc1 (centres undefined),30.8
21,O=C(Cc1ccccc1)Nc1ccc(Cl)cn1,21.5
22,COc1ccc(-c2noc(-c3ccoc3C)n2)cc1OC,0.8
23,CN(C)C(=O)Oc1noc2cc(Cl)ccc12,27.9
24,CS(=O)(=O)O.c1cnc(N2CCN(Cc3ccc4c(c3)OCO4)CC2)nc1,> 59.2

row,SMILES,solubility kinetic [µg/mL]
1,CN(C)CCCN1c2ccccc2Sc2ccccc21.Cl,> 48.1
2,O=C(Nc1cccnc1Cl)c1ccc(Cl)cc1,35
3,Cl.O=C1NCC2(CCN(CCc3ccccc3)CC2)O1,> 44.5
4,CC1CC(C)CN(C(=O)c2ccc3nc[nH]c3c2)C1 (centres undefined),> 38.6
5,O=C(O)CC(NC(=O)C1CCCCC1)c1ccc(OC2CCCC2)cc1 (centres undefined),53.4
6,COc1ccc(C)cc1NC(=O)CN1C(=O)C2CC=CCC2C1=O (centres undefined),> 49.3
7,C=CCNC(=S)N1CCN(CCNC2=CC(=O)CC(C)(C)C2)CC1,> 52.6
8,O=C(Nc1cc(S(=O)(=O)N2CCOCC2)ccc1N1CCOCC1)c1ccccc1Cl,> 69.9
9,O=C(O)c1ccc(COc2ccc([N+](=O)[O-])cc2)o1,> 39.5
10,COc1ccc(Cc2nc(-c3ccncc3)no2)cc1,35.5
11,CN(C)CCCC1Sc2ccccc2Sc2ccccc21.O=C(O)C(=O)O (centres undefined),> 60.8
12,Clc1nc(N2CCOCC2)ncc1Br,> 41.8
13,Clc1ccccc1-c1nc(-c2ccc(Br)o2)no1,< 0.3
14,O=C(c1ccc(F)cc1Cl)N1CCC2(CC1)OCCO2,> 45
15,O=C(CN1CCN(c2ccccc2F)CC1)c1ccc(O)cc1O,10.7
16,Cc1ccc(CSCc2ccc(C(=O)NC3CC3)o2)cc1,> 45.2
17,c1cncc(-c2nc3ccccc3s2)c1,22.7
18,CC1=CC(C)(C)NC(=S)N1C(C)c1ccccc1 (centres undefined),7.2
19,O=C1NCCCN1Cc1ccc(Cl)cc1,> 33.7
20,Cc1ccc(-c2cn3cccnc3n2)cc1,> 31.4
21,COc1ccc(/C=C/C(=O)N2CCNC(=O)C2)c(OC)c1,41.3
22,CCOC(=O)c1c(C)[nH]c(C)c1C(=O)COC(=O)[C@@H](NC(=O)c1ccco1)C(C)C,> 62.8
23,CCN(c1ccccc1)c1nc(=O)c2cccnc2s1,> 42.5
24,CCOC(=O)c1nc2ccccc2c(=O)[nH]1,> 32.7

row,SMILES,solubility kinetic [µg/mL]
1,CCC(=O)Nc1ccc2c(c1)nc(CCN1CCC(C)CC1)n2C,> 49.3
2,Cc1cc(C)c2c(N)c(C(=O)Nc3ccc(F)cc3)sc2n1,1.1
3,COc1ccccc1NCCC(=O)OCC(=O)Nc1cc([N+](=O)[O-])ccc1F,51.8
4,CC(CCc1ccc(O)cc1)NCCC(c1ccccc1)c1ccccc1 (centres undefined),53.4
5,CCN(CC)C(=O)CSc1ncccc1-c1nc2ccccc2[nH]1,17.6
6,COC(=O)CC1NCCc2cc(OC)c(OC)cc21 (centres undefined),> 39.8
7,O=C(c1ccc(Oc2ccc([N+](=O)[O-])cc2)cc1)N1CCCCCC1,34.4
8,NS(=O)(=O)c1ccc(NC(=O)CCC(=O)c2cccs2)cc1,14.7
9,CC(=O)c1cccc(NC(=O)CSc2nc3ccccc3c(=O)n2CCCN2CCOCC2)c1,> 72.1
10,O=C(COC(=O)C1CC2C=CC1C2)Nc1ccccc1F (centres undefined),> 43.4
11,CC(CC(=O)NCc1ccc(F)cc1)c1ccccc1 (centres undefined),> 40.7
12,O=C(CNC(=O)c1ccncc1)N/N=C/c1ccc(Br)cc1,> 54.2
13,COCCn1c(C)cc(C(=O)COC(=O)/C=C/c2ccc(OC)cc2OC)c1C,2.7
14,CC(OC(=O)C1=Cc2ccccc2OC1)C(=O)NCc1ccco1 (centres undefined),7.1
15,CSc1ccccc1NC(=S)NCc1ccc(Cl)cc1,2.5
16,CCN(CC)C(=O)c1csc(Nc2cccc3ccccc23)n1,7.2
17,O=S(=O)(c1ccc2c(c1)CCCC2)N1CCNCC1,> 42.1
18,CC1CCN(C(=S)NC(=O)c2cccs2)CC1,> 40.3
19,Cc1nn(C)cc1S(=O)(=O)Nc1cccc(Cl)c1,> 42.9
20,O=S(=O)(Nc1ccccc1O)c1cccc2cccnc12,43
21,O=C(Cc1cccs1)N1CCN=C1SCc1ccccc1Cl,6.6
22,Cc1noc(-c2ccc(Cl)cc2)c1C(=O)O/N=C(\N)c1ccc(C(C)(C)C)cc1,0.5
23,CC(=O)NC(CC(=O)N(C)Cc1cccc(Cl)c1Cl)c1ccccc1 (centres undefined),> 56.9
24,COc1cc2cc(NC(C)=O)cc(NCc3ccccc3)c2cc1OC,4.2

row,SMILES,solubility kinetic [µg/mL]
1,COc1cccc(CN2C(=O)c3ccccc3S2(=O)=O)c1,30
2,CC1(c2ccc([N+](=O)[O-])cc2)Nc2ccccc2S1 (centres undefined),12.1
3,O=C(O)c1ccc(CNC(=O)c2ccc(C(F)(F)F)cc2)cc1,> 48.5
4,CC(=O)Nc1ccc(S(=O)(=O)NCC(=O)Nc2ccc3c(c2)OCO3)cc1,> 58.7
5,CS(=O)(=O)N(CC(=O)N1CCCCCC1)c1cccc([N+](=O)[O-])c1,> 53.3
6,CCCCCNCc1ccc(Cl)cc1,12.4
7,C/C(=C\c1cccs1)C(=O)c1c(C)cc(C)[nH]c1=O,> 41
8,O=c1cc(C(F)(F)F)[nH]c2ccccc12,> 32
9,FC(F)(F)c1ccc(Cl)c(-n2c(-c3ccco3)n[nH]c2=S)c1,> 51.9
10,CC(C(=O)O)n1c2ccccc2c2cnn(C)c(=O)c21 (centres undefined),> 40.7
11,Cc1ncc([N+](=O)[O-])n1Cc1ccccc1F,> 35.3
12,COc1ccc(NC(=O)COC(=O)C(NC(=O)c2ccc(C)cc2)C(C)C)cn1 (centres undefined),57.9
13,S=C(NCc1ccc2c(c1)OCO2)NCc1ccco1,> 43.6
14,O=C(O)c1cccnc1SCc1cccc(Cl)c1,41.5
15,O=Cc1ccccc1OCCCOc1cccc2cccnc12,9.7
16,CCOC(=O)c1cc(C)nc(Sc2ccc(C)cc2)c1C#N,3.1
17,O=C(/C=C/c1ccc([N+](=O)[O-])cc1)c1cccs1,1.6
18,N/C(=N\OC(=O)c1cccnc1)c1ccccc1Cl,38.9
19,Cc1ccc(S(=O)(=O)N2CCC(C(=O)N3CCC3)CC2)cc1,47.4
20,Cc1nn(CC(=O)O)c(C)c1NC(=O)c1cccs1,> 41.9
21,CC(C)(C)S(=O)(=O)c1cnc(N2CCCCC2)nc1N,> 44.8
22,Cc1ccc(-c2ccc(CO)o2)cc1N,> 30.5
23,CCOC(=O)C1CCN(CC(O)COCc2ccc(Cl)cc2)CC1.Cl (centres undefined),57.5
24,CCOC(=O)N1CCN(c2ccc(S(=O)(=O)N3CCOCC3)cn2)CC1,47

row,SMILES,solubility kinetic [µg/mL]
1,O=C(NC(=O)N1CCCCC1)c1ccccc1,31.7
2,CC(C)N1CCN(c2ccc(S(=O)(=O)N3CCOCC3)cn2)CC1,> 53.2
3,Cc1cccc(N2C(=O)c3cccc4cccc(c34)C2=O)c1,1.5
4,NC(=O)COC(=O)c1ccc(-c2ccccc2)cc1,19.1
5,O=C(COc1ccccc1[N+](=O)[O-])Nc1cccc(S(=O)(=O)N2CCCC2)c1,3.5
6,CC(C)(Oc1ccc(Cl)cc1)C(=O)O/N=C(\N)c1ccncc1,34.3
7,CN1CCN(S(=O)(=O)c2ccc(N(C)Cc3c(F)cccc3Cl)nc2)CC1,5.4
8,CCc1cccc(C)c1NC(=O)CCOc1ccccc1,10.9
9,COc1ccc(NC(=O)c2ccc3c(c2)C(=O)N(Cc2ccncc2)C3=O)cc1S(N)(=O)=O,3.4
10,COc1cc(C2NC(=O)NC(C)=C2C(C)=O)cc(OC)c1OC (centres undefined),38.7
11,CCN1CCN(CC(=O)c2ccc(C)cc2)CC1,32.4
12,CC1=[N+](C)N(c2ccccc2)C(=O)C1N=C/C=C/c1ccccc1 (centres undefined),> 47.8
13,CCOc1ccc2nc(SCC(=O)Nc3nonc3C)[nH]c2c1,2.2
14,O=C(CCc1ccccc1)Nc1cc2c(cc1C(=O)O)OCCCO2,> 51.2
15,Oc1cc2c(cc1CN1CCN(c3ccccc3)CC1)OCO2,17.6
16,Cc1cc(C(=O)COC(=O)Cc2ccc(Br)cc2)c(C)n1C,15.2
17,O=C(Nc1ccc(S(=O)(=O)Nc2ncccn2)cc1)C12CC3CC(CC(Cl)(C3)C1)C2,> 67
18,Cn1cnnc1SCC(=O)NNC(=O)c1ccc([N+](=O)[O-])cc1,> 50.4
19,CN(CC(=O)Nc1ccccc1)CC(=O)Nc1ccccc1Cl,> 49.8
20,CCOc1ccc(CN(C)C(=O)CNC(=O)C2CCCCC2)cc1,> 49.9
21,O=C1Nc2ccccc2C1Cc1ccccc1 (centres undefined),29
22,COc1ccc(C(C)NC(=O)Nc2ccc(C(C)=O)cc2)cc1OC (centres undefined),47
23,Cc1ccoc1C(=O)Nc1ccc2ccccc2c1,7.5
